{
  "source": "patent US20240216410A1",
  "about": "“METHODS AND COMPOSITIONS FOR TREATING CANCER THERAPY-INDUCED NEUTROPENIC FEVER AND/OR GVHD” (BOARD OF REGENTS, THE UNIVERSITY OF TEXAS SYSTEM, priority 2021, published 2024)",
  "key": {"[1]": {"test_system": "murine BT GH2 β-galactosidase, GH33 sialidase, GH29 α-L-fucosidase", "assay": "Quantitative real-time PCR of GH2, GH29 and GH33 BT loci", "type": "cell-based, Bacteroides thetaiotaomicron", "conditions": "BT cultured with or without monosaccharides", "text": "(§1) To examine the effects of the presence of monosaccharides on mucin utilization by BT, BT was cultivated in bacterial media containing porcine gastric mucin, a panel of monosaccharides was subsequently added, including arabinose and xylose, and levels of remaining mucin were quantified using a colorimetric assay (FIG. 18C). In the absence of additional monosaccharides, BT readily metabolized porcine gastric mucin.\nQuantitative real-time PCR analysis of BT loci. Total RNA was isolated from in vitro cultured BT as described above. The cDNA was synthesized using a High-Capacity cDNA Reverse Transcription Kit (4368814, APPLIED BIOSYSTEMS™). The mRNA levels of selected targets were quantified by qPCR using KAPA SYBR® FAST Master Mix (Roche) and specific probes (GH2, 5′-[…]-3′ (SEQ ID NO:4) for the forward primer, 5′-[…]-3′ (SEQ ID NO:5) for the reverse primer; GH29, 5′-[…]-3′ (SEQ ID NO:6) for the forward primer, 5′-[…]-3′ (SEQ ID NO:7) for the reverse primer; GH33, 5′-[…]-3′ (SEQ ID NO:8) for the forward primer, 5′-[…]-3′ (SEQ ID NO:9) for the reverse primer) and were normalized to BT specific probes (5′-[…]-3′ (SEQ ID NO:10) for the forward primer, 5′-[…]-3′ (SEQ ID NO:11) for the reverse primer) (75)."}, "[2]": {"test_system": "mouse and human-derived BT", "assay": "Growth of BT in carbohydrate-poor media with monosaccharide", "type": "cell-based, Bacteroides thetaiotaomicron", "conditions": "OD600 nm up to 30 hours", "method": "Allo-HSCT recipient mice were treated with meropenem as in FIG. 15A and with xylose from days 13 to 20 (FIG. 18F). […] Importantly, in vitro, growth of mouse and human-derived BT in carbohydrate-poor media was augmented by xylose (FIG. 23B). […] Bacteria were cultured up to 48 hours at a starting concentration of 1×10^6 bacteria/ml in BYEM10 broth (pH 7.2) with and without 5 mg/ml of porcine gastric mucin ([…], Sigma-Aldrich). Optical densities (OD600 nm) of bacterial cultures were measured with a BioTek EPOCHTM 2 plate reader."}, "[3]": {"test_system": "colonic mucus layer", "assay": "Murine GVHD model: colonic mucus layer thickness (PAS staining)", "type": "in vivo, mice", "conditions": "day 20; xylose days 13 to 20 vs GVHD mice receiving meropenem alone", "method": "Next, assessed was the impact of meropenem treatment on the dense colonic mucus layer of mice with GVHD.\nAllo-HSCT recipient mice were treated with meropenem as in FIG. 15A and with xylose from days 13 to 20 (FIG. 18F). […] Importantly, in vitro, growth of mouse and human-derived BT in carbohydrate-poor media was augmented by xylose (FIG. 23B).\nXylose administration. D-(+)-xylose (X3877, SIGMA-ALDRICH®) was dissolved in phosphate buffer pH 8.0 with meropenem or in water without meropenem and given at a concentration of 0.5% from days 13 to 20 after allo-HSCT.\nHistological and immunohistochemistry analysis. […] Pathology scores were quantified by a blinded pathologist. […] Sections were imaged using an APERIO® AT2."}, "[4]": {"test_system": "BT (MDA-JAX BT001)", "assay": "Mucin degradation assay of BT in porcine gastric mucin medium with monosaccharides", "type": "cell-based, Bacteroides thetaiotaomicron", "conditions": "monosaccharide added at 15 hours, further 3 hours", "method": "as §1\nBacteria were cultured up to 48 hours at a starting concentration of 1×10^6 bacteria/ml in BYEM10 broth (pH 7.2) with and without 5 mg/ml of porcine gastric mucin (M1778, Sigma-Aldrich). Optical densities (OD600 nm) of bacterial cultures were measured with a BioTek EPOCH™ 2 plate reader.\nMucin degradation assay. Levels of mucin glycans in culture supernatants were determined by a PAS-based colorimetric assay as previously described (67) with minor modifications. Briefly, culture supernatants were centrifuged at 20,000 g, 4° C. for 10 minutes and collected. To perform mucin precipitation, 500 μL of culture supernatants were mixed with 1 mL of molecular grade ethanol and incubated at −30° C. overnight. Culture supernatants were centrifuged at 20,000 g, 4° C. for 10 minutes. Mucin-containing pellets were washed with 1 mL of molecular grade ethanol twice and resuspended in 500 μL of PBS. […] Absorbance was measured at 550 nm using a BioTek SYNERGY™ HTX plate reader."}, "[5]": {"test_system": "intestinal microbiota", "assay": "Murine GVHD model: fecal microbiome composition (16S rRNA sequencing) and bacterial density (qPCR)", "type": "in vivo, mice", "conditions": "day 20; meropenem-treated mice with or without oral xylose 0.5% days 13 to 20", "method": "Effects of meropenem treatment on the composition of the intestinal microbiota of allo-HSCT mice were also examined (FIG. 15F).\nSequencing of 16S rRNA gene amplicons. Fecal samples from patients and mice were weighed before DNA isolation. In brief, genomic DNA was isolated using the QIAAMP® DNA mini kit (51306, QIAGEN®) according to the manufacturer's protocol that was modified to include an intensive bead-beating lysis step. The V4 region of 16S rRNA gene was amplified by PCR from 100 ng of each of extracted and purified genomic DNA using 515 forward and 806 reverse primer pairs (59). The quality and quantity of the barcoded amplicons were assessed on an Agilent 4200 TapeStation system (Agilent) and QUBIT™ Fluorometer (THERMO FISHER […]™), and libraries were prepared after pooling at equimolar ratios. The final libraries were purified using […]® gel extraction kit (28706X4, QIAGEN®) and sequenced with a 2×250 base pair paired-end protocol on the […]® MISEQ™ platform.\nMicrobiome data analysis. Sequencing data from paired-end reads were de-multiplexed using QIIME 2 (60). Merging of paired-end reads, dereplicating, and length filtering was performed using VSEARCH 2.17.1 (61). Following de-noising and chimera calling using the unoise3 command (62), unique sequences were taxonomically classified with mothur (63) using the Silva database (64) version 138. Weighted UniFrac distances (65) were determined using QIIME 2, visualized using principal coordinate analysis, and evaluated for statistical significance using permutational multivariate analysis of variance (PERMANOVA) testing. For differential abundance analysis, abundances of sequences belonging to taxonomical groups were included for analysis using the Mann-Whitney U test and adjusted for multiple comparisons using the method of Benjamini and Hochberg. Paired samples were analyzed using the Wilcoxon signed rank test with adjustment for multiple comparisons.\nQuantification of fecal bacterial density. Genomic DNA was isolated from stool as described above. qPCR was performed as previously described (66). In brief, 16S rRNA gene sequences were amplified from total fecal DNA using the primers 926F (5′-[…]-3′, where K is a G or a T; SEQ ID NO:2) and 1062R (5′-[…]-3′, where R is an A or a G; SEQ ID NO:3). Real-time PCR were carried out in 96-well optical plates on QUANTSTUDIO™ Flex 6 RT PCR (APPLIED BIOSYSTEMS™) and KAPA SYBR® FAST Master Mix (Roche). The PCR conditions included one initial denaturing step of 10 min at 95° C. and 40 cycles of 95° C. for 20 sec and 60 °C for 1 min. Melting-curve analysis was performed after amplification. To determined bacterial density, a plasmid with a 16S rRNA gene of a murine Blautia isolate was generated in the pCR4 backbone and used as a standard."}},
  "data": [
    {"smiles": "O=C[C@H](O)[C@@H](O)[C@H](O)CO", "note": "[xylose, D-(+)-xylose]", "values": [
      {"measurement": "expression of GH2 β-galactosidase by murine BT", "setting": "[1]", "result": "not significantly impacted"},
      {"measurement": "expression of GH33 sialidase and GH29 α-L-fucosidase by murine BT", "setting": "[1]", "result": "suppressed"},
      {"measurement": "growth of BT in carbohydrate-poor media", "setting": "[2]", "result": "augmented"},
      {"measurement": "colonic mucus thickness", "setting": "[3]", "result": "prevented thinning of the colonic mucus thickness"},
      {"measurement": "mucin utilization by BT", "setting": "[4]", "result": "significantly suppressed"},
      {"measurement": "relative abundances of BT", "setting": "[5]", "result": "not significantly different"}
    ]}
  ]
}
